The values below come from PubChem BioAssay (NCI).

SMILES strings stand for the structures.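 Step 1: Grow cells in 96-well plates. Step 2: Expose to compound for 48 hours at 5 concentrations. Step 3: Interpolate endpoints linearly; if unreached, use highest concentration. TGI denotes the concentration required for complete inhibition of growth.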

Holding throughout (assay): NCI tumour cell line growth inhibition, 48 h
In test [1] the test system is DMS 273 small cell lung.
The subject of test [2] is LOX IMVI melanoma.
For test [3], the system named is LXFL 529 NSCLC.
In test [4] the test system is M19-MEL melanoma.
In test [5] the test system is 786-0 renal.
The test system of test [6] is SR leukemia.
Test [7] relates to UO-31 renal.
Test [8] has as its system DMS 114 small cell lung.
The subject of test [9] is DLD-1 colon.
Test [10] relates to SNB-78 CNS.
The test system of test [11] is OVCAR-8 ovarian.
For test [12], the system named is DU-145 prostate.
Test [13] concerns SK-MEL-2 melanoma.
The subject of test [14] is NCI/ADR-RES ovarian.
Test [15] has as its system KM20L2 colon.
Test [16] relates to MDA-N.

Consider `COc1ccc2c[n+](C)c3c4cc(OC)c(OC)cc4ccc3c2c1`, for which the TGI in [1] was found to be 12.5 µM; in test [2], 17.2 µM; in [3] it was 12 µM; in [4], 25.6 µM; in test [5], 15.5 µM; in [6] it was 14.4 µM. In addition, the TGI in test [7] is 84.6 µM; in [8] it was 4.16 µM; in [9] it was 42.2 µM; in test [10], 33.5 µM; in test [11], 13.8 µM; in [12], 37.4 µM. Further, the figures for the TGI in [13], in test [14] and in test [15] were 27.7 µM, more than 100 µM and 29.7 µM, respectively.
For the compound `COc1cc2c(oc(=O)c3cc4ccoc4c(OC)c32)c2cccc(O)c12`, the TGI in [1], in test [2], in test [3], in test [4], in test [5] and in [6] was more than 100 µM in each case. Besides, the TGI in test [7], in test [8], in test [9], in test [10], in test [11] and in [13] was more than 100 µM each time. The TGI in test [15] was more than 100 µM.
Regarding `Nc1ccc(C(=O)NN2C(=O)C(Cl)C2c2ccc([N+](=O)[O-])cc2)cc1` (stereo not given), the TGI was 17.5 µM in [1]; 5.2 µM in test [2]; 18.2 µM in test [3]; 28 µM in test [4]; 16.6 µM in test [5]; 30.8 µM in [7]. Moreover, the TGI stood at 11.2 µM in test [8]; 21.8 µM in [9]; 51.7 µM in test [10]; 56 µM in test [11]; 31.8 µM in test [13]; 27.4 µM in test [15].
Take `CC(C)C(Sc1nc(-c2ccccc2)c(-c2ccccc2)[nH]1)C(=O)N/N=C/c1ccc([N+](=O)[O-])cc1` (stereo not given): the TGI in test [1] came out at 27.5 µM; in test [2], 26 µM; in test [3], 33.8 µM; in [4] it was 23.8 µM; in test [5], 32.1 µM; in test [6], 33.6 µM. Further, the TGI was 26.5 µM in test [7]; 68.2 µM in test [8]; more than 100 µM in [9]; more than 100 µM in test [10]; more than 100 µM in test [11]; 29.4 µM in [13]. Besides, in test [15], the TGI came out at 32.9 µM.
On to `Cc1nc2c(n1CCC(C)C)C(=O)c1ccccc1C2=O`, for which the TGI in test [1] is 29.4 µM; in [2] it was 30.9 µM; in test [3] it was more than 100 µM; in test [4], 28.5 µM; in [5], more than 100 µM; in [6], 37.6 µM. Further, the TGI in test [7] is 86.7 µM; in test [9], more than 100 µM; in [10], more than 100 µM; in test [11] it was more than 100 µM; in [13] it was 34.6 µM; in [15], more than 100 µM.
Consider `CC(C)[Si](OCC1CC(C[C@H]2CC(C[C@H]3C[C@@H](CO[Si](C(C)C)(C(C)C)C(C)C)OC(C)(C)O3)OC(C)(C)O2)OC(C)(C)O1)(C(C)C)C(C)C` (stereo not given in full), for which the TGI in test [1], in test [2], in test [4], in [5], in test [6] and in [7] was more than 100 µM each time. Moreover, the TGI in test [8], in [9], in test [10], in test [11], in [13] and in [15] was more than 100 µM each time.
As to `NC(CCCNc1cccc(O)c1)C(=O)O` (stereo not given), the TGI in test [1], in test [2], in test [3], in test [4], in test [5] and in test [6] was more than 100 µM each time. Further, the TGI in test [7], in test [8], in test [9], in test [10], in test [11] and in test [13] was more than 100 µM throughout. Moreover, the TGI in test [15] was more than 100 µM.
As to `O=C1c2ccccc2C(=O)C2C3c4ccccc4C(c4ccccc43)C12` (stereo not given), the TGI amounted to 39.4 µM in [1]; 28.9 µM in test [2]; 37.2 µM in [3]; 40 µM in [4]; 18.9 µM in [5]; 30.5 µM in test [6]. Further, the TGI in test [7] was 59.6 µM; in test [8] it was 42.7 µM; in test [9] it was more than 100 µM; in test [10] it was 51.3 µM; in test [11], 42.3 µM; in test [15], more than 100 µM.
Take `CC(=O)[O-].[Ni].c1ccc(/C(=N\Nc2ccccn2)c2ccccn2)cc1`: the TGI in test [1] was 25.5 µM; in [2] it was 22.3 µM; in test [3], 16 µM; in [4] it was 39.3 µM; in [5], 22.1 µM; in test [16], 21.1 µM. The TGI was 18.8 µM in test [7]; 3.36 µM in test [8]; 32.7 µM in test [9]; more than 100 µM in test [10]; 31.6 µM in test [11]; 25.1 µM in test [12]. In addition, the figures for the TGI in [13], in test [14] and in test [15] were 24.9 µM, 25.9 µM and 22.1 µM, respectively.
On to `O=C(O)C(Cc1cnc[nH]1)N=Cc1nc(-c2ccccc2)oc1O` (stereo not given), for which the TGI in [1], in test [2], in [3], in test [4], in test [5] and in test [6] was more than 100 µM throughout. Further, the TGI in [7], in test [8], in test [9], in test [10], in test [11] and in test [13] was more than 100 µM each time. In addition, the TGI in test [15] was more than 100 µM.
